{"source": "paper PMC10035389", "about": "“Safety, Tolerability, and Pharmacokinetics of TAK-931, a Cell Division Cycle 7 Inhibitor, in Patients with Advanced Solid Tumors: A Phase I First-in-Human Study” (Cancer Research Communications, 2022)", "origin": "cited, not measured here", "conditions": "animal toxicology studies; used as escalation limit; cited from earlier work", "data": [{"smiles": "Cc1[nH]ncc1-c1cc2nc([C@@H]3CC4CCN3CC4)[nH]c(=O)c2s1", "note": "[TAK-931, simurosertib]", "values": [{"measurement": "Cmax threshold for off-target adverse effects (hypotension)", "result": 800, "unit": "ng/mL"}]}]}
